The source of these data is article PMC7145527 (2019).

For assay [1], the system named is wt Chili RNA aptamer (RNA, aptamer) GGCUAGCUGGAGGGGCGCCAGUUCGCUGGUGGUUGGGUGCGGUCGGCUAGCC
The experiment in a line: fluorescence activation.

For assay [2] the test system is unchanged. The experiment in a line: fluorescence competition. To be noted: K+ 125 mM, Mg2+ 5 mM; 40 mM HEPES pH 7.5; competes with DMHBAI; up to 5 µM (tenfold excess).
For assay [3] the test system is unchanged. The experiment in a line: fluorescence activation kinetics. The note with it: K+ 125 mM, Mg2+ 5 mM; 40 mM HEPES pH 7.5, 25 °C; 0.025 µM RNA.
The test system of assay [4] is Chili C16U (RNA, aptamer) GGCUAGCUGGAGGGGUGCCAGUUCGCUGGUGGUUGGGUGCGGUCGGCUAGCC
The experiment in a line: fluorescence activation. The note with it: K+ 125 mM, Mg2+ 5 mM; HEPES pH 7.5; inferred from absent fluorescence; 0.5 µM RNA and dye.

For assay [5], the system named is Chili G31A (RNA, aptamer) GGCUAGCUGGAGGGGCGCCAGUUCGCUGGUAGUUGGGUGCGGUCGGCUAGCC
In words: fluorescence activation. The note with it: K+ 125 mM, Mg2+ 5 mM; HEPES pH 7.5; inferred from absent fluorescence; 0.5 µM RNA and dye.

Assay [6] has as its system Chili C16U/G31A (RNA, aptamer) GGCUAGCUGGAGGGGUGCCAGUUCGCUGGUAGUUGGGUGCGGUCGGCUAGCC
In words: fluorescence activation. The note with it: K+ 125 mM, Mg2+ 5 mM; HEPES pH 7.5; inferred from absent fluorescence; 0.5 µM RNA and dye.

Assay [7] relates to Chili U34C (RNA, aptamer) GGCUAGCUGGAGGGGCGCCAGUUCGCUGGUGGUCGGGUGCGGUCGGCUAGCC
In words: fluorescence activation. To be noted: K+ 125 mM, Mg2+ 5 mM; HEPES pH 7.5; I540 203.1 versus wt 200.2.

Assay [8] has as its system Chili G35A (RNA, aptamer) GGCUAGCUGGAGGGGCGCCAGUUCGCUGGUGGUUAGGUGCGGUCGGCUAGCC
In words: fluorescence activation. The note with it: K+ 125 mM, Mg2+ 5 mM, HEPES pH 7.5.

Assay [9] concerns Chili G36A (RNA, aptamer) GGCUAGCUGGAGGGGCGCCAGUUCGCUGGUGGUUGAGUGCGGUCGGCUAGCC
The experiment in a line: fluorescence activation. To be noted: K+ 125 mM, Mg2+ 5 mM, HEPES pH 7.5.

Assay [10] relates to Chili U38C (RNA, aptamer) GGCUAGCUGGAGGGGCGCCAGUUCGCUGGUGGUUGGGCGCGGUCGGCUAGCC
In words: fluorescence activation. The note with it: K+ 125 mM, Mg2+ 5 mM; HEPES pH 7.5; I540 129.3 versus wt 200.2.

The subject of assay [11] is Chili C40U (RNA, aptamer) GGCUAGCUGGAGGGGCGCCAGUUCGCUGGUGGUUGGGUGUGGUCGGCUAGCC
In words: fluorescence activation. The note with it: K+ 125 mM, Mg2+ 5 mM; HEPES pH 7.5; I540 156.1 versus wt 200.2.

In assay [12] the test system is Chili C44U (RNA, aptamer) GGCUAGCUGGAGGGGCGCCAGUUCGCUGGUGGUUGGGUGCGGUUGGCUAGCC
The experiment in a line: fluorescence activation. To be noted: K+ 125 mM, Mg2+ 5 mM; HEPES pH 7.5; I540 122.6 versus wt 200.2.

Assay [13] deals with wt Chili RNA aptamer (RNA, aptamer) GGCUAGCUGGAGGGGCGCCAGUUCGCUGGUGGUUGGGUGCGGUCGGCUAGCC
In words: isothermal titration calorimetry. The note with it: K+ 125 mM, Mg2+ 5 mM; HEPES pH 7.5, 25 °C.

For assay [14] the test system is unchanged. The experiment in a line: fluorescence titration. The note with it: K+ 125 mM, Mg2+ 5 mM, HEPES pH 7.5, incubated at 4 °C 16 h.
The test system is the same in assay [15]. In words: imino 1H NMR. The note with it: K+ 50 mM, Mg2+ 1 mM; 25 mM KPi pH 7.4; 20 µM RNA, 20 µM dye.
The mark [16] stands for this setting: K+ 125 mM, Mg2+ 5 mM, 80 mM HEPES pH 7.5, 0.5 µM RNA, 0.5 µM dye.
The mark [17] stands for this setting: weaker fluorescence than parent Chili.

The structures appear in SMILES notation.

With `COc1cc(/C=C2\N=C(C)N([C@H]3CC[C@H](C)CC3)C2=O)cc(OC)c1O`, the binding entry in [1] (setting [16]) is “yes”.
As for `COc1ccc(N2C(=O)/C(=C/c3cc(OC)cc(OC)c3)N=C2C)cc1`, the binding entry in assay [2] is recorded as “no”.
For the compound `CN1C(=Cc2cc[n+](C)c3ccccc23)Sc2ccccc21`, the binding entry in assay [1] is reported as “yes”.
In turn, `COc1cc(/C=C2\N=C(C=NO)N(c3ccc([N+](C)(C)C)cc3)C2=O)cc(OC)c1O` registered a kon in [3] of 65000 L/mol/s.
Regarding `COc1cc(/C=C2\N=C(C)N(C)C2=O)cc(OC)c1O`, the binding result is reported as “no” in [4]; “no” in [5]; “no” in assay [6]; “yes” in [7]; “yes” in assay [8] (I540 138.2 versus wt 200.2); “yes” in [9] (I540 192.9 versus wt 200.2). The binding result in assay [10], in assay [11] and in assay [12] was “yes” each time. In addition, the KD in assay [13] turned out to be 371 ± 55 nM.
Regarding `COc1cc(/C=C2\N=C(C)N(c3ccc(C)cc3)C2=O)cc(OC)c1O`, the KD in assay [14] (Figure S6 legend instead prints 0.377±0.024 µM) was 151 ± 21 nM.
Turning to `COc1cc(/C=C2N=C(/C=C/c3ccccc3)N(C)C\2=O)cc(OC)c1O`, the binding entry in assay [15] is recorded as “yes”.
For `COc1cc(/C=C2\N=C(C)N(c3ccc([N+](C)(C)C)cc3)C2=O)cc(OC)c1O`, the binding result in [4] is given as “no”; in [5] it was “no”; in assay [6] it was “no”; in [8] (setting [17]), “yes”; in assay [9] (setting [17]), “yes”. Moreover, the kon in [3] was 82000 L/mol/s. The KD in assay [13] worked out at 24.1 ± 5.6 nM.
Regarding `COc1cc(/C=C2N=C(/C=C/c3c[nH]c4ccccc34)N(C)C\2=O)cc(OC)c1O`, the binding entry in assay [1] (setting [16]) is “yes”.
Still for that read-out and setting: next, `CCN1C(=O)/C(=C/c2cc(OC)c(O)c(OC)c2)N=C1C`: “yes”; `COc1cc(/C=C2N=C(/C=C/c3ccccc3)N(c3ccc([N+](C)(C)C)cc3)C\2=O)cc(OC)c1O`: “yes”; `COc1cc(/C=C2N=C(/C=C/c3c[nH]c4ccccc34)N(c3ccc(C)cc3)C\2=O)cc(OC)c1O`: “yes”.
Still for that read-out and setting: next, `COc1ccc(N2C(=O)/C(=C/c3ccc(O)c(OC)c3)N=C2C)cc1`: “yes”.
As for `COc1ccc(N2C(=O)/C(=C/c3cc(OC)c(O)c(OC)c3)N=C2C)cc1`, the KD in [14] (dye 0.1 µM) amounted to 65 ± 7 nM. This counts as double-digit nanomolar.
As for `COc1cc(/C=C2N=C(/C=C/c3ccncc3)N(C)C\2=O)cc(OC)c1O`, the binding result in [15] is “yes”.
In the case of `Cc1ccc2c(c1)sc(-c1ccc(N(C)C)cc1)[n+]2C`, the binding entry in [1] is reported as “yes”.
For the compound `COc1cc(/C=C2\N=C(C)N(c3ccccc3)C2=O)cc(OC)c1O`, the binding result in [1] (setting [16]) is listed as “yes”.
Consider `COc1cc(/C=C2\N=C(C)N(C)C2=O)cc(Br)c1O`, for which, in assay [1] (setting [16]), the binding result is reported as “yes”.
In the case of `COc1cc(/C=C2N=C(/C=C/c3c[nH]cn3)N(C)C\2=O)cc(OC)c1O`, the binding entry in [1] (setting [16]) is given as “yes”.
